Experimental data published in PubChem BioAssay AID330 (DTP/NCI, 2004).
“And” between values parts separate entries of the source, which are not always exact repeats. Equal entries are not always repeated. Inconclusive results and toxic doses are left out. Rule for the calls: active = survival T/C of 150% or more; inactive = T/C below 125% in these data.

Test system: P388 leukemia ip, CD2F1 mice, survival T/C
Assay: NCI In Vivo Anticancer Drug Screen. Data for tumor model P388 Leukemia (intraperitoneal) in CD2F1 (CDF1) mice
Settings: endpoint: median survival time, higher = longer survival
How it was run: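 Mice carrying the transplanted tumor received test compound or vehicle. Survival was recorded in each group, and the value is the treated-group measurement divided by that of the vehicle-treated control group.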

[1] = dose: 50.0 mg/kg/injection, schedule: Q01DX009 (ip), vehicle: suspension in saline
[2] = dose: 100.0 mg/kg/injection, schedule: Q01DX009 (ip), vehicle: suspension in saline
[3] = dose: 200.0 mg/kg/injection, schedule: Q01DX009 (ip), vehicle: suspension in saline
[4] = dose: 100.0 mg/kg/injection, schedule: Q01DX005 (ip), vehicle: Klucel (hydroxypropylcellulose) (HPC)
[5] = dose: 50.0 mg/kg/injection, schedule: Q01DX009 (ip), vehicle: Klucel (hydroxypropylcellulose) (HPC)
[6] = dose: 100.0 mg/kg/injection, schedule: Q01DX009 (ip), vehicle: Klucel (hydroxypropylcellulose) (HPC)
[7] = dose: 25.0 mg/kg/injection, schedule: Q01DX009 (ip), vehicle: Klucel (hydroxypropylcellulose) (HPC)
[8] = dose: 60.0 mg/kg/injection, schedule: Q01DX005 (ip), vehicle: saline with Tween-80
[9] = dose: 120.0 mg/kg/injection, schedule: Q01DX005 (ip), vehicle: saline with Tween-80
[10] = dose: 240.0 mg/kg/injection, schedule: Q01DX005 (ip), vehicle: saline with Tween-80
[11] = dose: 25.0 mg/kg/injection, schedule: Q01DX005 (ip), vehicle: water
[12] = dose: 50.0 mg/kg/injection, schedule: Q01DX005 (ip), vehicle: water
[13] = dose: 100.0 mg/kg/injection, schedule: Q01DX005 (ip), vehicle: water
[14] = dose: 100.0 mg/kg/injection, schedule: Q04DX003 (ip), vehicle: Klucel (hydroxypropylcellulose) (HPC)
[15] = dose: 200.0 mg/kg/injection, schedule: Q04DX003 (ip), vehicle: Klucel (hydroxypropylcellulose) (HPC)
[16] = dose: 100.0 mg/kg/injection, schedule: Q01DX009 (ip), vehicle: saline
[17] = dose: 200.0 mg/kg/injection, schedule: Q01DX009 (ip), vehicle: saline

Measured: T/C

Cc1ccc(S(=O)(=O)/C=C/c2ccc([N+](=O)[O-])o2)cc1
inactive: [1] 108 % of control | [2] 104 % of control | [3] 104 % of control

CCCC1CCCC[N+]1(C)[B-](F)(F)F (stereo not drawn)
inactive: dose: 3.12 mg/kg/injection, schedule: Q01DX005 (ip), vehicle: saline 100 % of control | dose: 6.25 mg/kg/injection, schedule: Q01DX005 (ip), vehicle: saline 99 % of control | dose: 12.5 mg/kg/injection, schedule: Q01DX005 (ip), vehicle: saline 103 % of control | dose: 25.0 mg/kg/injection, schedule: Q01DX005 (ip), vehicle: saline 100 % of control and 102 % of control

CC(C)(S)[C@H]1NC(=O)NC1=O
inactive: dose: 50.0 mg/kg/injection, schedule: Q01DX005 (ip), vehicle: Klucel (hydroxypropylcellulose) (HPC) 99 % of control | [4] 99 % of control | dose: 200.0 mg/kg/injection, schedule: Q01DX005 (ip), vehicle: Klucel (hydroxypropylcellulose) (HPC) 103 % of control

CC(C)(C)C(CO)CNc1ccccc1 (stereo not drawn)
inactive: [5] 110 % of control | [6] 110 % of control | dose: 200.0 mg/kg/injection, schedule: Q01DX009 (ip), vehicle: Klucel (hydroxypropylcellulose) (HPC) 107 % of control

CCCC(NC(=O)OCc1ccccc1)C(=O)NC(C)C(=O)O (stereo not drawn)
inactive: [7] 104 % of control | [5] 105 % of control | [4] 100 % of control | [6] 106 % of control

Cc1ccc(C2N3CCCN2CC3)cc1 (stereo not drawn)
inactive: dose: 50.0 mg/kg/injection, schedule: Q01DX009 (ip), vehicle: saline with Tween-80 104 % of control | dose: 100.0 mg/kg/injection, schedule: Q01DX009 (ip), vehicle: saline with Tween-80 102 % of control | dose: 200.0 mg/kg/injection, schedule: Q01DX009 (ip), vehicle: saline with Tween-80 109 % of control

Cc1csc2n/c(=N/[N+](=O)[O-])sn12
inactive: [8] 92 % of control | [9] 103 % of control | [10] 120 % of control

NC1C(N)C(N)C1N (stereo not drawn)
inactive: dose: 12.5 mg/kg/injection, schedule: Q01DX005 (ip), vehicle: water 102 % of control | [11] 102 % of control | [12] 102 % of control | [13] 98 % of control | dose: 200.0 mg/kg/injection, schedule: Q01DX005 (ip), vehicle: water 94 % of control

O=C(O)CC(CC(=O)O)CN(CC(=O)O)Cc1ccccc1
inactive: dose: 20.0 mg/kg/injection, schedule: Q01DX005 (ip), vehicle: Klucel (hydroxypropylcellulose) (HPC) 102 % of control | dose: 40.0 mg/kg/injection, schedule: Q01DX005 (ip), vehicle: Klucel (hydroxypropylcellulose) (HPC) 90 % of control | dose: 80.0 mg/kg/injection, schedule: Q01DX005 (ip), vehicle: Klucel (hydroxypropylcellulose) (HPC) 91 % of control

C[n+]1c(-c2cccc3ccccc23)c2cc(N)ccc2c2ccccc21
inactive: dose: 0.78 mg/kg/injection, schedule: Q01DX009 (ip), vehicle: water 110 % of control | dose: 1.56 mg/kg/injection, schedule: Q01DX009 (ip), vehicle: saline 103 % of control and 113 % of control | dose: 1.56 mg/kg/injection, schedule: Q01DX009 (ip), vehicle: water 119 % of control | dose: 3.12 mg/kg/injection, schedule: Q01DX009 (ip), vehicle: saline 105 % of control | dose: 6.25 mg/kg/injection, schedule: Q01DX009 (ip), vehicle: saline 112 % of control and 122 % of control | dose: 12.0 mg/kg/injection, schedule: Q01DX009 (ip), vehicle: water 110 % of control | dose: 12.5 mg/kg/injection, schedule: Q01DX009 (ip), vehicle: saline 117 % of control and 121 % of control

O=C1C2C3C=CC(O3)C2C(=O)N1CCN1CCOCC1 (stereo not drawn)
inactive: [11] 96 % of control | [12] 97 % of control | dose: 100.0 mg/kg/injection, schedule: Q01DX005 (ip), vehicle: other 93 % of control | [13] 102 % of control | dose: 200.0 mg/kg/injection, schedule: Q01DX005 (ip), vehicle: other 101 % of control

CCOC(=O)c1cnc2cc(Cl)ccc2c1N=[N+]=[N-]
inactive: [8] 91 % of control | [9] 100 % of control | [10] 99 % of control

C1=C(N2CCCC2)C(=[N+]2CCCC2)C(N2CCCC2)=C1
inactive: dose: 3.75 mg/kg/injection, schedule: Q01DX005 (ip), vehicle: saline with Tween-80 101 % of control | dose: 7.5 mg/kg/injection, schedule: Q01DX005 (ip), vehicle: saline with Tween-80 100 % of control | dose: 15.0 mg/kg/injection, schedule: Q01DX005 (ip), vehicle: saline with Tween-80 105 % of control

O=C(Nc1ccc(-c2c[nH]c(=O)c([N+](=O)[O-])c2)cc1)OCc1ccccc1
inactive: dose: 6.25 mg/kg/injection, schedule: Q01DX009 (ip), vehicle: saline with Tween-80 95 % of control | dose: 12.5 mg/kg/injection, schedule: Q01DX009 (ip), vehicle: saline with Tween-80 95 % of control

COCOC(/C=C/C=C/CCCCOCc1ccccc1)CCC/C=C(\C)CO (stereo not drawn)
inactive: dose: 50.0 mg/kg/injection, schedule: Q01DX001 (ip), vehicle: saline with Tween-80 104 % of control | dose: 100.0 mg/kg/injection, schedule: Q01DX001 (ip), vehicle: saline with Tween-80 102 % of control | dose: 200.0 mg/kg/injection, schedule: Q01DX001 (ip), vehicle: saline with Tween-80 103 % of control

NC(=S)c1ccc(N)cc1
inactive: [14] 100 % of control | [15] 106 % of control

C1CC[N-]CC1.C1CC[N-]CC1.[Cl][Pt+2]([Cl])([Cl])[Cl]
inactive: dose: 264.0 mg/kg/injection, schedule: Q01DX009 (ip), vehicle: saline with Tween-80 86 % of control

O=C(O)C(CS(=O)(=O)O)Nc1ncnc2nc[nH]c12 (stereo not drawn)
inactive: [16] 100 % of control | [17] 100 % of control | dose: 400.0 mg/kg/injection, schedule: Q01DX009 (ip), vehicle: saline 109 % of control

COc1ccc2c(c1)C1(C)CC(OC1=O)C2=O (stereo not drawn)
inactive: dose: 25.0 mg/kg/injection, schedule: Q01DX001 (ip), vehicle: Klucel (hydroxypropylcellulose) (HPC) 99 % of control | dose: 50.0 mg/kg/injection, schedule: Q01DX001 (ip), vehicle: Klucel (hydroxypropylcellulose) (HPC) 100 % of control | dose: 100.0 mg/kg/injection, schedule: Q01DX001 (ip), vehicle: Klucel (hydroxypropylcellulose) (HPC) 100 % of control

CSC(=S)S(=O)(=O)C12CC3CC(CC(C3)C1)C2
inactive: dose: 6.25 mg/kg/injection, schedule: Q01DX009 (ip), vehicle: Klucel (hydroxypropylcellulose) (HPC) 111 % of control | [7] 113 % of control and 114 % of control

CC1CC=C(C(=O)N2CCOCC2)C1 (stereo not drawn)
inactive: dose: 50.0 mg/kg/injection, schedule: Q04DX003 (ip), vehicle: Klucel (hydroxypropylcellulose) (HPC) 103 % of control | [14] 105 % of control | [15] 101 % of control

Cc1cc2cc(N)ccc2[se]1
inactive: [1] 98 % of control | [16] 94 % of control | [2] 108 % of control | [17] 89 % of control | [3] 101 % of control
